Laboratory results reported in US20230257480A1, “ENHANCING BLOOD-BRAIN BARRIER DRUG TRANSPORT BY TARGETING ENDOGENOUS REGULATORS” (THE BOARD OF TRUSTEES OF THE LELAND STANFORD JUNIOR …, priority 2019, published 2023).

Biological target: T1, ALPL (Mus musculus, UniProt P09242)
T1 construct: from tissue; host or cells: brain sections (cerebral cortex vasculature) of aged C57BL/6 mice dosed in vivo
T1 sequence (P09242 18-501): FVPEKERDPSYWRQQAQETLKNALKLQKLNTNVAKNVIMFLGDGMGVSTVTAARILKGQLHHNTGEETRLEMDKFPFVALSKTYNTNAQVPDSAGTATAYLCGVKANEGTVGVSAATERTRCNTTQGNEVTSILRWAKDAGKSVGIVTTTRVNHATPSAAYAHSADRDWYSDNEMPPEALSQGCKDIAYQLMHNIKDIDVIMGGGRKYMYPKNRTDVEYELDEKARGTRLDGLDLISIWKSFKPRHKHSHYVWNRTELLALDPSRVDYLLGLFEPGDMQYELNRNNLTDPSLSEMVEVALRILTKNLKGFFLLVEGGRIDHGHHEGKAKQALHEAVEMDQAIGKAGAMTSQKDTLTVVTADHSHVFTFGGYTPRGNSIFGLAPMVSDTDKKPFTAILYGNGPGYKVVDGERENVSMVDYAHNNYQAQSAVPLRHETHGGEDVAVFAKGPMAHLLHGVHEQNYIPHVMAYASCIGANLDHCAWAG
Experiment: ALPL activity in the cerebral cortex vasculature (Red Alkaline Phosphatase Substrate Kit)
Format: in vivo
Settings: aged (22 m.o.) mice, 8.75 mg/kg intraperitoneally twice per day for three days, vs vehicle
From the text: FIG. 12A is a dot plot representation of cell-surface, druggable gene candidates on brain endothelial cells. Genes were plotted by their degree of blood-brain barrier specificity (Daneman et al., PLoS One (2010). doi:10.1371/journal.pone.0013741) and correlation with plasma uptake. Genes were colored by their upregulation (brown) or downregulation (green) with age. FIG. 12B includes representative images of calcified nodules (Alizarin red staining) detected in aged (23 m.o.—bottom panel) but not young (3 m.o.—top panel) mice, recapitulating nodules seen in pericyte-deficient Pdgfbret/ret mice (Keller et al., Nat. Genet. (2013). doi:10.1038/ng.2723) (representative image of n=5 mice per age). […] FIG. 12E is a graph illustrating quantification of ALPL expression in the cerebral cortex vasculature of young (3 m.o.) and aged (23 m.o.) mice (n=7, two-sided t-test; mean+/−s.e.m.). […] Uptake in the brain endothelium and parenchyma was assessed by flow cytometry and confocal microscopy of the cortex and hippocampus. […] FIG. 12H is a graph illustrating quantification of ALPL activity in the cerebral cortex vasculature of aged (22 m.o.) mice treated with ALPL inhibitor (anti-ALPL) or vehicle and in young (3 m.o.) mice (n=6-9, one-way ANOVA with Tukey's multiple comparisons correction; mean+/−s.e.m.). […]

ALPL activity in the aged brain vasculature: decreased
SMILES: COc1ccc(OC)c(S(=O)(=O)Nc2cnc3ccccc3c2)c1 [ALPL inhibitor, 2,5-Dimethoxy-N-(quinolin-3-yl)benzenesulfonamide]
